The record followed here is ChEMBL document CHEMBL1152596, “Inhibition of serotonin and norepinephrine reuptake and inhibition of phosphodiesterase by multi-target inhibitors as potential agents for depression” (Bioorg Med Chem, 2009).

For experiment [1], the target named is T1, Sodium-dependent dopamine transporter (Homo sapiens, UniProt Q01959).
Description: Inhibition of [3H]DA reuptake at human DAT expressed in HEK293 cells
Experiment [2] concerns the target T2, Sodium-dependent serotonin transporter (Homo sapiens, UniProt P31645).
Description: Inhibition of [3H]5HT reuptake at human SERT expressed in HEK293 cells
Experiment [3] deals with T3, Sodium-dependent noradrenaline transporter (Homo sapiens, UniProt P23975).
Description: Inhibition of [3H]NE reuptake at human NET expressed in HEK cells
Experiment [4] deals with 3',5'-cyclic-AMP phosphodiesterase 4D (Homo sapiens, UniProt Q08499).
Description: Inhibition of PDE4D2 assessed as cAMP hydrolysis
Experiment [5] has as its target T1, Sodium-dependent dopamine transporter. In words: biochemical.
Description: Displacement of [125I]RTI-55 from human recombinant DAT expressed in HEK293 cells
The target of experiment [6] is T2, Sodium-dependent serotonin transporter. As to the kind of experiment: biochemical.
Description: Displacement of [125I]RTI-55 from human recombinant SERT expressed in HEK293 cells
The target in experiment [7] is T3, Sodium-dependent noradrenaline transporter. In words: biochemical.
Description: Displacement of [125I]RTI-55 from human recombinant NET expressed in HEK293 cells by scintillation counting

T2 sequence (P31645 whole entry): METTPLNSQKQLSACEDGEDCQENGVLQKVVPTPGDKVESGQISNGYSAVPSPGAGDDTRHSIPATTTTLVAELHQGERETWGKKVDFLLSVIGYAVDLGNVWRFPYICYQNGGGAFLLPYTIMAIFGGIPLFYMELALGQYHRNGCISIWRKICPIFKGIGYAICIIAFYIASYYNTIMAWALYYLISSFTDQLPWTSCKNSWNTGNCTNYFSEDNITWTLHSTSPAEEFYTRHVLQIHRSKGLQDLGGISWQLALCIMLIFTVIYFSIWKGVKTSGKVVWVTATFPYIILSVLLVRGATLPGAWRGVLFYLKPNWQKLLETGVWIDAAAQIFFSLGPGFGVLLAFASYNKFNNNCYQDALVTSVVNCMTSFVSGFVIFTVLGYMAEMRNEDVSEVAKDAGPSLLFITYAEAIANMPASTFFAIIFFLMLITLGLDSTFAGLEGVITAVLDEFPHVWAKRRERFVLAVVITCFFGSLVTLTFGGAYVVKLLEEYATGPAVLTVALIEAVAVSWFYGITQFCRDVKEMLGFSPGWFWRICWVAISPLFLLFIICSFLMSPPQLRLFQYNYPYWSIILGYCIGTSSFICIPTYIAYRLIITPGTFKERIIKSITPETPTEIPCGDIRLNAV
T1 sequence (Q01959 whole entry): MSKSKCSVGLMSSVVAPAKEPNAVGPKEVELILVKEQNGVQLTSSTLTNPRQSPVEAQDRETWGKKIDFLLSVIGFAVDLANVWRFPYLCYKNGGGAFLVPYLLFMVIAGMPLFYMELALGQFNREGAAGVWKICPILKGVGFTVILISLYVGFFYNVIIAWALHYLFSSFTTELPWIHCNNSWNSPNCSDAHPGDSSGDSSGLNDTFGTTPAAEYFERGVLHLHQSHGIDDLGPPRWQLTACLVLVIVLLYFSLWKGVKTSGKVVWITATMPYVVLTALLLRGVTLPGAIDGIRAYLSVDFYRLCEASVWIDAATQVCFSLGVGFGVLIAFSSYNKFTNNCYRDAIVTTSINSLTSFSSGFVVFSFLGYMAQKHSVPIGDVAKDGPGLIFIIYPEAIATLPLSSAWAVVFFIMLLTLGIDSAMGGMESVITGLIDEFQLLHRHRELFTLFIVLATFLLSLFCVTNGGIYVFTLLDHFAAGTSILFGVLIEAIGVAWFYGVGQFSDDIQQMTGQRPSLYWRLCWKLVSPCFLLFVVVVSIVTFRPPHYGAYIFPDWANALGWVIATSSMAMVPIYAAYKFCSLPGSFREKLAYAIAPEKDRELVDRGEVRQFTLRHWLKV
T3 sequence (P23975 whole entry): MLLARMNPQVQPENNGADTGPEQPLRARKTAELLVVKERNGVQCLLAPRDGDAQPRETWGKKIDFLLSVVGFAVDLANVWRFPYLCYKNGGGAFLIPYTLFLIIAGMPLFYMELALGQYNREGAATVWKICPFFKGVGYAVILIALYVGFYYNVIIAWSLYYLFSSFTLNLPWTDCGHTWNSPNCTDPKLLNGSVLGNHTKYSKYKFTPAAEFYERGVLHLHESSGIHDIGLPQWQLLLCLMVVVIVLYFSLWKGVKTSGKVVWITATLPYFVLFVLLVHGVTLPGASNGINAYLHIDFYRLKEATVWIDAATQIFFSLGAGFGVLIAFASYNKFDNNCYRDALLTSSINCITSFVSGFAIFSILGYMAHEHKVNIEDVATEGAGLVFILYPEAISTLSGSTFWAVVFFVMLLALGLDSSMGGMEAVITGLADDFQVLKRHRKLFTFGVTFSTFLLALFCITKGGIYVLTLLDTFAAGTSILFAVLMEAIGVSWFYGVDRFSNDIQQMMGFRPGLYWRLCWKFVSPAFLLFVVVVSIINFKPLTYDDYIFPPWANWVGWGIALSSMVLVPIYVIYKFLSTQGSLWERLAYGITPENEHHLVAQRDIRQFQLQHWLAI
3',5'-cyclic-AMP phosphodiesterase 4D, sequence (Q08499 whole entry): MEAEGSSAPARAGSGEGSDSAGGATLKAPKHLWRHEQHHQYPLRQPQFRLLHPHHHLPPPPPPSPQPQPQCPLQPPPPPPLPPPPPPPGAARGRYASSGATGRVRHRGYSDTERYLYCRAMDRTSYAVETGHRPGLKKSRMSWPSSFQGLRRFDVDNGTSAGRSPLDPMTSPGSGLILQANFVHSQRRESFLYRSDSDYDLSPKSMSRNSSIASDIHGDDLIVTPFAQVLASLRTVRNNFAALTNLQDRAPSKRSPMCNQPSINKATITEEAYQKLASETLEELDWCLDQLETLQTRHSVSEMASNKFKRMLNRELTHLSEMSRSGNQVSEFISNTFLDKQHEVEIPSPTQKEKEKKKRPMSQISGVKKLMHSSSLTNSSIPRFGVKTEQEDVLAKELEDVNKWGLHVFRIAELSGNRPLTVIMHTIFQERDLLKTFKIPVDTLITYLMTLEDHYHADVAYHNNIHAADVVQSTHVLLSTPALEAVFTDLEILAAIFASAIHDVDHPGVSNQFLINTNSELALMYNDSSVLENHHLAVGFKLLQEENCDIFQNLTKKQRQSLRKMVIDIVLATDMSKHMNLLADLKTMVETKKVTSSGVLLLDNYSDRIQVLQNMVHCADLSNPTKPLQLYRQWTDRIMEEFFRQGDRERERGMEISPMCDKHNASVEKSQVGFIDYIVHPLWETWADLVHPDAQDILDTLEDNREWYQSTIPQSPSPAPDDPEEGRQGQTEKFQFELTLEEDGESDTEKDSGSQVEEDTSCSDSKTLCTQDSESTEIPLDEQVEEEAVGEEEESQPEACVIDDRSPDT

Usually IC50 stands for the point on the concentration scale where inhibition reaches its midpoint. The low end stands for greater potency, the high end for weaker potency. By Ki is commonly meant the equilibrium dissociation constant of an inhibitor or competing ligand from its target. A higher Ki goes with a looser hold on the target. In the case of `COc1ccc(C2=NN(CCCCCNCC[C@@H](Oc3cccc4ccccc34)c3cccs3)C(=O)[C@@H]3CC=CC[C@H]23)cc1OC`, the IC50 in experiment [1] came out at 1790 nM; in experiment [2], 442 nM; in experiment [3] it was 2100 nM; in experiment [4], 45 nM. The Ki in experiment [5] is 857 nM; in experiment [6], 127 nM; in experiment [7], 3240 nM.
Consider `COc1ccc(C2=NN(CCCCCNCC[C@H](Oc3cccc4ccccc34)c3cccs3)C(=O)[C@@H]3CC=CC[C@H]23)cc1OC`, for which the IC50 in experiment [1] came out at 6630 nM; in experiment [2] it was 404 nM; in experiment [3] it was 2190 nM; in experiment [4] it was 23 nM. Besides, the inhibition constant (Ki) in experiment [5] was 4600 nM; in experiment [6], 726 nM; in experiment [7], above 100000 nM.
Regarding `COc1ccc(C2=NNC(=O)[C@@H]3CC=CC[C@H]23)cc1OC` (relative stereo), the IC50 in experiment [1] was above 100000 nM; in experiment [2] it was above 100000 nM; in experiment [3], above 100000 nM; in experiment [4] it was 213 nM. Besides, the inhibition constant Ki in experiment [5], in experiment [6] and in experiment [7] was above 100000 nM each time.
Turning to `NCC[C@H](Oc1cccc2ccccc12)c1cccs1` [(S)-NORDULOXETINE], the half-inhibitory concentration (IC50) is above 10000 nM in experiment [1], 25.6 nM in experiment [2], 445 nM in experiment [3] and above 100000 nM in experiment [4]. Further, the results for the Ki in experiment [5], in experiment [6] and in experiment [7] were above 10000 nM, 18 nM and 2400 nM, respectively.
On to `NCC[C@@H](Oc1cccc2ccccc12)c1cccs1` [R-NORDULOXETINE], for which the IC50 is above 10000 nM in experiment [1], 6.8 nM in experiment [2], 188 nM in experiment [3] and above 100000 nM in experiment [4]. The Ki in experiment [5] came out at 3550 nM; in experiment [6] it was 8.3 nM; in experiment [7], 953 nM.
